pIC50: −log10 of the molar value. Each block holds one molecule with its values, some of them ahead of it.
Assays:
rats [1] = assay: Staircase test (test de l'escalier); format: in vivo; conditions: 20 mg/Kg, 1 h after administration, counted for 3 min
Description: L'appareil et le protocole utilisés ont été décrits par THIEBOT et coll. (Psychopharmacologia (Berlin) 1973, 31, 77).
L'expérimentation est réalisée sur des lots de 15 rats naifs. Les animaux sont déposés individuellement dans l'enceinte 1 heure après l'administration du composé étudié. Le nombre de redressements effectués et le nombre de marches montées sont comptés pendant 3 mn.

rats [2] = assay: Four-plate test (test des 4 plaques), rats; format: in vivo; conditions: 20 mg/Kg per os, 1/2 h after administration
Method: (§1) L'appareil (Apelab) et le protocole utilisés ont été décrits par BOISSIER et coll. (European J. Pharmacol. 1968, 4, 145). Les plaques sont reliées à un stimulateur (U. Sachs, Roucaire) qui permet de délivrer des chocs électriques de 120 volts pendant 0,5 s. Les essais sont réalisés sur des lots de 10 souris ou rats 1/2 h après administration per os du composé étudié. Chaque animal est déposé individuellement sur l'appareil. Après 15s d'exploration libre , il est soumis à un choc électrique chaque fois qu'il passe d'une plaque à l'autre, un minimum de 3 secondes étant observé entre deux chocs. Le nombre de chocs délivrés est compté pendant 1 minute. Les résultats obtenus sont comparés à ceux observés chez des animaux témoins par un test de Dunnett.

[3] = molecular target: récepteurs des benzodiazépines; assay: Affinity for benzodiazepine receptors (displacement of 3H diazepam, rat cortex membranes); design: species or system rats; conditions: concentration inhibiting 50 % of specific 3H diazepam (10^-9M) binding, 30 min at 0°C, read-out: CI 50 (the source's name)
Method: 1) Affinité pour les récepteurs des benzodiazépines.
On homogénéise au vingtième (poids/volume) dans le sucrose 0,32M, les cortex prélevés sur des cerveaux de rats mâles pesant 150 g en moyenne.
Après centrifugation de l'homogénat à 1000 g pendant 10 minutes à 0°C, le surnageant est centrifugé à 30 000 g pendant 20 minutes à +4"C. Le culot est mis en suspension dans 20 volumes de tampon Tris Hcl 50mM pH 7,4 et centrifugé à 30 000 g pendant 20 minutes à +4°c. Le nouveau culot obtenu est mis en suspension dans 50 ml de tampon Krebs Tris HCl pH 7,4.
On fait ensuite incuber pendant 30 minutes à 0°C, 2 ml de suspension en présence de ^3H diazepam à la concentration 10-^9M, seul, avec des concentrations croissantes du produit à tester, ou, pour déterminer la fixation non spécifique, avec du diazepam non radioactif à la concentration 10^-6M.
Les suspensions incubées sont filtrées sur Whatman GF/C et les filtres sont lavés par deux fois 5 ml de tampon Krebs Tris HCl pH 7,4 à 0°C.
La radioactivité des filtres est mesurée par scintillation liquide.
L'activité du produit est exprimée en C. I. 50 : concentration inhibant 50 % de la liaison spécifique de ^3H diazepam déterminée graphiquement.

souris = assay: Four-plate test (test des 4 plaques), mice; format: in vivo; conditions: 1/2 h after administration
Method: as §1

pIC50 [3]: 8.85
Compound: O=c1c2n[nH]c3ccc(Cl)cc3c-2nn1-c1ccccc1 [Exemple 1, 8-chloro-2,5-dihydro-2-phényl 3H-pyrazolo/4,3-c/ cinnolin-3-one]
diminution du nombre de redressements (rats [1]): 46%
nombre de marches montées (rats [1]): sans modification notable
augmentation du nombre de chocs délivrés (rats [2]): 41%
augmentation du nombre de chocs délivrés (souris; 20 mg/Kg per os): 63%

Compound: O=c1c2n[nH]c3ccccc3c-2nn1-c1ccccc1 [Exemple 3, 2,5-dihydro-2-phényl 3H-pyrazolo/4,3-c/ cinnolin-3-one]
augmentation du nombre de chocs (souris; 50 mg/kg per os): 50%

Compound: O=c1c2n[nH]c3ccccc3c-2nn1-c1ccccn1 [Exemple 8, Chlorhydrate du 2,5-dihydro-(2-pyridin-2-yl) 3H-pyrazolo /4,3-c/ cinnolin-3-one]
augmentation du nombre de chocs (souris; 100 mg/kg per os): 50%

— patent EP0187551A1, “Pyrazolo[4,3-c]cinnolin-3-one derivatives, their salts, preparation process, use as medicaments, compositions containing them and intermediate products” (ROUSSEL-UCLAF, priority 1985, dated 1986)
